# Test: log P by HPLC, EEC Directive 79/831 Annex V.A8, method a)
# Format: physicochemical
# Conditions: cell prints no method mark; Ex. 40 value equals the log P given under method a)
# Experimental: (§1) ^a) Note regarding the determination of the log P values and mass detection The determination of the given log P values was carried out in accordance with EEC Directive 79/831 Annex V.A8 by HPLC (High Performance Liquid Chromatography) on a reversed-phase column (C18). Agilent 1100 LC system; 50*4.6 Zorbax Eclipse Plus C18 1.8 micron; mobile phase A: acetonitrile (0.1% formic acid); mobile phase B: water (0.09% formic acid); linear gradient from 10% acetonitrile to 95% acetonitrile in 4.25 min, then 95% acetonitrile for a further 1.25 min; oven temperature 55° C.; flow rate: 2.0 ml/min Mass detection is via an Agilend MSD system.
# as §1, with “mass detection:” for “mass detection”, “2.0 ml/min.” for “2.0 ml/min”
row,SMILES,logP
1,Cn1nc(C(F)(F)F)c(C(F)(F)F)c1C(=O)Nc1cc(Br)c(Br)c(C(=O)NC2(C#N)CC2)c1 [Example 11],3.30
2,Cn1nc(C(F)(F)F)c(C(F)(F)F)c1C(=O)Nc1cc(Cl)c(Br)c(C(=O)NC2(C#N)CC2)c1 [Example 12],3.27
3,Cn1nc(C(F)(F)C(F)(F)F)c(C(F)(F)F)c1C(=O)Nc1cc(Br)c(Cl)c(C(=O)NC2(C#N)CC2)c1 [Example 13],3.67
4,CCC(=O)N(C(=O)c1cc(NC(=O)c2c(C(F)(F)F)c(C(F)(F)C(F)(F)F)nn2C)ccc1Cl)C1(C#N)CC1 [Example 15],4.17
5,Cn1nc(C(F)(F)C(F)(F)F)c(C(F)(F)F)c1C(=O)Nc1cc(Cl)c(Br)c(C(=O)NC2(C#N)CC2)c1 [Example 16],3.73
6,Cn1nc(C2(F)CC2)c(Cl)c1C(=O)Nc1ccc(Cl)c(C(=O)NC2(C#N)CC2)c1 [Example 17],2.50
7,CC(=O)N(C(=O)c1c(C(F)(F)F)c(C(F)(F)C(F)(F)F)nn1C)c1ccc(Cl)c(C(=O)N(C(C)=O)C2(C#N)CC2)c1 [Example 18],4.04
8,COC(=O)N(C(=O)c1c(C(F)(F)F)c(C(F)(F)C(F)(F)F)nn1C)c1ccc(Cl)c(C(=O)NC2(C#N)CC2)c1 [Example 19],3.69
9,CCOC(=O)N(C(=O)c1c(C(F)(F)F)c(C(F)(F)C(F)(F)F)nn1C)c1ccc(Cl)c(C(=O)NC2(C#N)CC2)c1 [Example 20],3.95
10,COC(=O)N(C(=O)c1c(C(F)(F)F)c(C(F)(F)C(F)(F)F)nn1C)c1ccc(Cl)c(C(=O)N(C(=O)OC)C2(C#N)CC2)c1 [Example 21],4.32
11,CCOC(=O)N(C(=O)c1c(C(F)(F)F)c(C(F)(F)C(F)(F)F)nn1C)c1ccc(Cl)c(C(=O)N(C(=O)OCC)C2(C#N)CC2)c1 [Example 22],4.80
12,Cn1nc(C(F)(F)C(F)(F)F)c(C(F)(F)F)c1C(=O)N(C(=O)C(C)(C)C)c1ccc(Cl)c(C(=O)NC2(C#N)CC2)c1 [Example 23],4.40
13,Cc1cc(NC(=O)c2c(C(F)(F)F)c(C(F)(F)C(F)(F)F)nn2C)cc(C(=O)NC2(C#N)CC2)c1Cl [Example 24],3.51
14,C#CCN(C(=O)c1c(C(F)(F)F)c(C(F)(F)C(F)(F)F)nn1C)c1ccc(Cl)c(C(=O)NC2(C#N)CC2)c1 [Example 26],3.41
15,Cn1nc(C(F)(F)C(F)(F)F)c(C(F)(F)F)c1C(=O)Nc1ccc(F)c(C(=O)NC2(C#N)CC2)c1 [Example 27],3.21

# Same assay, conditions: reversed-phase C18 HPLC column; HPLC-MS method a), reversed-phase C18, acetonitrile/water with formic acid
row,chromatographic logP,SMILES
1,3.18,Cn1nc(C(F)(F)C(F)(F)F)c(C(F)(F)F)c1C(=O)Nc1ccc(Cl)c(C(=O)O)c1 [2-Chloro-5-({[1-methyl-3-(pentafluoroethyl)-4-(trifluoromethyl)-1H-pyrazol-5-yl]carbonyl}amino)benzenecarboxylic acid]
2,1.52,N#CC1(NC(=O)c2cc([N+](=O)[O-])ccc2Cl)CC1 [2-chloro-N-(1-cyanocyclopropyl)-5-nitrobenzamide]
3,1.9,Cn1nc(C2(Cl)CC2)c(Cl)c1C(=O)O [4-Chloro-3-(1-chlorocyclopropyl)-1-methyl-1H-pyrazole-5-carboxylic acid]
4,3.07,Cn1nc(C2(F)CC2)c(Cl)c1C(=O)O [4-Chloro-3-(1-fluorocyclopropyl)-1-methyl-1H-pyrazole-5-carboxylic acid]
5,0.82,N#CC1(NC(=O)c2cc(N)ccc2Cl)CC1 [5-Amino-2-chloro-N-(1-cyanocyclopropyl)benzamide]
6,3.52,CCOC(=O)c1c(Cl)c(C2(Cl)CC2)nn1C [Ethyl 4-chloro-3-(1-chlorocyclopropyl)-1-methyl-1H-pyrazole-5-carboxylate]
7,3.07,CCOC(=O)c1c(Cl)c(C2(F)CC2)nn1C [Ethyl 4-chloro-3-(1-fluorocyclopropyl)-1-methyl-1H-pyrazole-5-carboxylate]

# Same assay, conditions: reversed-phase HPLC column (C18); HPLC-MS, method note not marked
row,chromatographic logP,SMILES
1,3.51,CSc1c(C(F)(F)C(F)(F)F)nn(C)c1C(=O)O [1-Methyl-4-(methylsulphanyl)-3-(pentafluoroethyl)-1H-pyrazole-5-carboxylic acid]

# — patent US9126945B2, “N-(3-carbamoylphenly)-1H-pyrazole-5-carboxamide derivatives and the use thereof for controlling animal pests” (BAYER INTELLECTUAL PROPERTY GMBH, priority 2011, dated 2015)
